# Source: US6355799B1, “Substituted benzene compounds, process for their preparation, and herbicidal and defoliant compositions containing them” (ISK Americas Incorporated, priority 1997, dated 2002)
# What was measured:
# Format in all cases: in vivo
# [1] = system: upland rice (Oryza sp., var. Tebonnet, RICE); assay: Pre-emerge test, crop safety; conditions: pre-emerge, 14 days after application, rating scale 0-100
# Method in brief: (§1)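 Applied at 15–1000 g ai/ha from acetone in 187 l/ha spray volume. Post-emergence applications included 0.25% v/v non-ionic surfactant and reached plants sown 8–21 days before. Pre-emergence applications were incorporated by surface watering. Efficacy or crop damage was rated on a 0–100 scale after 14 days.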
# [2] = system: field corn (Zea mays L., var. Dekalb 535, CORN); assay: Pre-emerge test, crop safety; conditions: pre-emerge, 14 days after application, rating scale 0-100
# Method in brief: as §1
# [3] = system: ivyleaf morningglory (Ipomoea hederacea, IPOHE); assay: Pre-emerge test, greenhouse herbicide activity screening; conditions: for phytotoxicity rating IPOHE: pre-emerge, 14 days after application, rating scale 0-100; for Pre-emerge Herbicidal Activity, phytotoxicity rating (0-100), IPOHE: rated 14 days after application, 0 = no damage, 100 = complete death
# Method in brief: (§2)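 Compounds in acetone were track-sprayed at 187 l/ha, 15–1000 g ai/ha, onto sandy loam pots. Pre-emerge seeds were sown one day before spraying, with surface watering afterwards. Post-emerge plants were at the 2–3 leaf stage and sprayed with 0.25% v/v non-ionic surfactant. Injury was rated 0–100 at 14 days.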
# [4] = system: sicklepod (Cassia obtusifolia, CASOB); assay: as above; conditions: for phytotoxicity rating CASOB: pre-emerge, 14 days after application, rating scale 0-100; for Pre-emerge Herbicidal Activity, phytotoxicity rating (0-100), CASOB: rated 14 days after application, 0 = no damage, 100 = complete death
# Method in brief: as §2
# [5] = system: barnyardgrass (Echinochloa crus-galli, ECHCG); assay: as above; conditions: for phytotoxicity rating ECHCG: pre-emerge, 14 days after application, rating scale 0-100; for Pre-emerge Herbicidal Activity, phytotoxicity rating (0-100), ECHCG: rated 14 days after application, 0 = no damage, 100 = complete death
# Method in brief: as §2
# [6] = system: velvetleaf (Abutilon theophrasti, ABUTH); assay: as above; conditions: for phytotoxicity rating ABUTH: pre-emerge, 14 days after application, rating scale 0-100; for Pre-emerge Herbicidal Activity, phytotoxicity rating (0-100), ABUTH: rated 14 days after application, 0 = no damage, 100 = complete death
# Method in brief: as §2
# [7] = system: large crabgrass (Digitaria sanguinalis, DIGSA); assay: as above; conditions: for phytotoxicity rating DIGSA: pre-emerge, 14 days after application, rating scale 0-100; for Pre-emerge Herbicidal Activity, phytotoxicity rating (0-100), DIGSA: rated 14 days after application, 0 = no damage, 100 = complete death
# Method in brief: as §2
# [8] = system: green foxtail (Setaria viridis, SETVI); assay: as above; conditions: for phytotoxicity rating SETVI: pre-emerge, 14 days after application, rating scale 0-100; for Pre-emerge Herbicidal Activity, phytotoxicity rating (0-100), SETVI: rated 14 days after application, 0 = no damage, 100 = complete death
# Method in brief: as §2
# [9] = system: johnsongrass (Sorghum halepense, SORHA); assay: as above; conditions: for phytotoxicity rating SORHA: pre-emerge, 14 days after application, rating scale 0-100; for Pre-emerge Herbicidal Activity, phytotoxicity rating (0-100), SORHA: rated 14 days after application, 0 = no damage, 100 = complete death
# Method in brief: as §2
# [10] = system: common ragweed (Ambrosia artemisizfolia L., AMBEL); assay: as above; conditions: for phytotoxicity rating AMBEL: pre-emerge, 14 days after application, rating scale 0-100; for Pre-emerge Herbicidal Activity, phytotoxicity rating (0-100), AMBEL: rated 14 days after application, 0 = no damage, 100 = complete death
# Method in brief: as §2
# [11] = system: lambsquarters (Chenopodium album, CHEAL); assay: as above; conditions: for phytotoxicity rating CHEAL: pre-emerge, 14 days after application, rating scale 0-100; for Pre-emerge Herbicidal Activity, phytotoxicity rating (0-100), CHEAL: rated 14 days after application, 0 = no damage, 100 = complete death
# Method in brief: as §2
# [12] = system: redroot pigweed (Amaranthus retroflexus, AMARE); assay: as above; conditions: for phytotoxicity rating AMARE: pre-emerge, 14 days after application, rating scale 0-100; for Pre-emerge Herbicidal Activity, phytotoxicity rating (0-100), AMARE: rated 14 days after application, 0 = no damage, 100 = complete death
# Method in brief: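 Rating: 0–100 visual injury, 14 DAA. Application: acetone, 187 l/ha, 15–1000 g ai/ha, flat-fan track sprayer with nozzle 40–45 cm above soil or canopy. Post-emerge runs used 0.25% v/v surfactant on 2–3 leaf plants.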
# [13] = system: ivyleaf morningglory (Ipomoea hederacea, IPOHE); assay: Post-emerge test, greenhouse herbicide activity screening; conditions: post-emerge, 14 days after application, rating scale 0-100
# Method in brief: (§3)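 Fourteen days after spraying, crop and weed injury was graded visually from 0, no effect, to 100, every plant dead. Test substances were dissolved in acetone and applied at 15–1000 g ai/ha with a flat-fan nozzle. Application was either pre-emergence, one day after sowing, or post-emergence at the 2–3 leaf stage.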
# [14] = system: sicklepod (Cassia obtusifolia, CASOB); assay: as above; conditions: post-emerge, 14 days after application, rating scale 0-100
# Method in brief: as §3
# [15] = system: redroot pigweed (Amaranthus retroflexus, AMARE); assay: as above; conditions: post-emerge, 14 days after application, rating scale 0-100
# Method in brief: as §3
# [16] = system: barnyardgrass (Echinochloa crus-galli, ECHCG); assay: as above; conditions: post-emerge, 14 days after application, rating scale 0-100
# Method in brief: as §3
# [17] = system: velvetleaf (Abutilon theophrasti, ABUTH); assay: as above; conditions: post-emerge, 14 days after application, rating scale 0-100
# Method in brief: as §3
# [18] = system: large crabgrass (Digitaria sanguinalis, DIGSA); assay: as above; conditions: post-emerge, 14 days after application, rating scale 0-100
# Method in brief: as §3
# [19] = system: green foxtail (Setaria viridis, SETVI); assay: as above; conditions: post-emerge, 14 days after application, rating scale 0-100
# Method in brief: as §3
# [20] = system: johnsongrass (Sorghum halepense, SORHA); assay: as above; conditions: post-emerge, 14 days after application, rating scale 0-100
# Method in brief: as §3
# [21] = system: lambsquarters (Chenopodium album, CHEAL); assay: as above; conditions: post-emerge, 14 days after application, rating scale 0-100
# Method in brief: as §3
compound,measurement,setting,value
CCOC(=O)C(Cl)Cc1c(OCC)c(Cl)cc(F)c1-n1c(=O)cc(C(F)(F)F)n(C)c1=O (centres unmarked) [14-64],phytotoxicity rating RICE,[1]; 63 g ai/ha,0
same,phytotoxicity rating RICE,[1]; 250 g ai/ha,10
same,phytotoxicity rating CORN,[2]; 63 g ai/ha,0
same,phytotoxicity rating CORN,[2]; 250 g ai/ha,0
same,phytotoxicity rating IPOHE,[3]; 63 g ai/ha,0
same,phytotoxicity rating IPOHE,[3]; 250 g ai/ha,0
same,phytotoxicity rating CASOB,[4]; 63 g ai/ha,0
same,phytotoxicity rating CASOB,[4]; 250 g ai/ha,0
same,phytotoxicity rating ECHCG,[5]; 63 g ai/ha,0
same,phytotoxicity rating ECHCG,[5]; 250 g ai/ha,95
same,phytotoxicity rating ABUTH,[6]; 63 g ai/ha,90
same,phytotoxicity rating ABUTH,[6]; 250 g ai/ha,100
same,phytotoxicity rating DIGSA,[7]; 63 g ai/ha,50
same,phytotoxicity rating DIGSA,[7]; 250 g ai/ha,100
same,phytotoxicity rating SETVI,[8]; 63 g ai/ha,0
same,phytotoxicity rating SETVI,[8]; 250 g ai/ha,100
same,phytotoxicity rating SORHA,[9]; 63 g ai/ha,0
same,phytotoxicity rating SORHA,[9]; 250 g ai/ha,20
same,phytotoxicity rating AMBEL,[10]; 63 g ai/ha,20
same,phytotoxicity rating AMBEL,[10]; 250 g ai/ha,60
same,phytotoxicity rating CHEAL,[11]; 63 g ai/ha,60
same,phytotoxicity rating CHEAL,[11]; 250 g ai/ha,100
same,phytotoxicity rating AMARE,[12]; 63 g ai/ha,100
same,phytotoxicity rating AMARE,[12]; 250 g ai/ha,100
"Cc1c(Cl)cc(F)c(-n2c(=O)cc(C(F)(F)F)n(C)c2=O)c1NC(=O)c1ccc2ccccc2c1 [Compound 2-122, 3-[4-chloro-6-fluoro3-methyl-2-(2-naphthoyl)aminophenyl]-1-methyl-6-trifluoromethyl-2,4(1H, 3H)-pyrimidinedione]","Pre-emerge Herbicidal Activity, phytotoxicity rating (0-100), IPOHE",[3]; 63 g ai/ha,30
same,"Pre-emerge Herbicidal Activity, phytotoxicity rating (0-100), IPOHE",[3]; 250 g ai/ha,90
same,"Pre-emerge Herbicidal Activity, phytotoxicity rating (0-100), CASOB",[4]; 63 g ai/ha,30
same,"Pre-emerge Herbicidal Activity, phytotoxicity rating (0-100), CASOB",[4]; 250 g ai/ha,50
same,"Pre-emerge Herbicidal Activity, phytotoxicity rating (0-100), ECHCG",[5]; 63 g ai/ha,20
same,"Pre-emerge Herbicidal Activity, phytotoxicity rating (0-100), ECHCG",[5]; 250 g ai/ha,80
same,"Pre-emerge Herbicidal Activity, phytotoxicity rating (0-100), ABUTH",[6]; 63 g ai/ha,100
same,"Pre-emerge Herbicidal Activity, phytotoxicity rating (0-100), ABUTH",[6]; 250 g ai/ha,100
same,"Pre-emerge Herbicidal Activity, phytotoxicity rating (0-100), DIGSA",[7]; 63 g ai/ha,100
same,"Pre-emerge Herbicidal Activity, phytotoxicity rating (0-100), DIGSA",[7]; 250 g ai/ha,100
same,"Pre-emerge Herbicidal Activity, phytotoxicity rating (0-100), SETVI",[8]; 63 g ai/ha,80
same,"Pre-emerge Herbicidal Activity, phytotoxicity rating (0-100), SETVI",[8]; 250 g ai/ha,100
same,"Pre-emerge Herbicidal Activity, phytotoxicity rating (0-100), SORHA",[9]; 63 g ai/ha,30
same,"Pre-emerge Herbicidal Activity, phytotoxicity rating (0-100), SORHA",[9]; 250 g ai/ha,60
same,"Pre-emerge Herbicidal Activity, phytotoxicity rating (0-100), AMBEL",[10]; 63 g ai/ha,30
same,"Pre-emerge Herbicidal Activity, phytotoxicity rating (0-100), AMBEL",[10]; 250 g ai/ha,90
same,"Pre-emerge Herbicidal Activity, phytotoxicity rating (0-100), CHEAL",[11]; 63 g ai/ha,100
same,"Pre-emerge Herbicidal Activity, phytotoxicity rating (0-100), CHEAL",[11]; 250 g ai/ha,100
same,"Pre-emerge Herbicidal Activity, phytotoxicity rating (0-100), AMARE",[12]; 63 g ai/ha,100
same,"Pre-emerge Herbicidal Activity, phytotoxicity rating (0-100), AMARE",[12]; 250 g ai/ha,100
same,phytotoxicity rating IPOHE,[13]; 63 g ai/ha,100
same,phytotoxicity rating IPOHE,[13]; 250 g ai/ha,80
same,phytotoxicity rating CASOB,[14]; 63 g ai/ha,100
same,phytotoxicity rating CASOB,[14]; 250 g ai/ha,100
same,phytotoxicity rating AMARE,[15]; 63 g ai/ha,100
same,phytotoxicity rating AMARE,[15]; 250 g ai/ha,100
same,phytotoxicity rating ECHCG,[16]; 63 g ai/ha,30
same,phytotoxicity rating ECHCG,[16]; 250 g ai/ha,50
same,phytotoxicity rating ABUTH,[17]; 63 g ai/ha,100
same,phytotoxicity rating ABUTH,[17]; 250 g ai/ha,100
same,phytotoxicity rating DIGSA,[18]; 63 g ai/ha,40
same,phytotoxicity rating DIGSA,[18]; 250 g ai/ha,60
same,phytotoxicity rating SETVI,[19]; 63 g ai/ha,90
same,phytotoxicity rating SETVI,[19]; 250 g ai/ha,95
same,phytotoxicity rating SORHA,[20]; 63 g ai/ha,30
same,phytotoxicity rating SORHA,[20]; 250 g ai/ha,60
same,phytotoxicity rating CHEAL,[21]; 63 g ai/ha,100
same,phytotoxicity rating CHEAL,[21]; 250 g ai/ha,100
